Laboratory results as given in the NIST ThermoML archive (doi:10.1016/j.tca.2017.04.014).

Assays:
[1] = molar heat capacity at constant pressure; details: 101.33 kPa, Crystal, DSC
[2] = 298.15 K, 101.3 kPa, Crystal
[3] = xn = mol fraction of the nth substance listed; details: 298.15 K, 101.3 kPa, Crystal, x2 = 0
[4] = molar heat capacity at constant pressure; xn = mol fraction of the nth substance listed; details: 101.3 kPa, Crystal, DSC, x2 = 0

[O-2].[O-2].[U+4] [uranium dioxide]
Details	mass density [kg/m3]	molar heat capacity at constant pressure [J/K/mol]
[1], 300 K	–	64.6
[1], 310 K	–	66.2
[1], 320 K	–	66.8
[1], 330 K	–	67.7
[1], 340 K	–	68.7
[1], 350 K	–	69.1
[1], 360 K	–	69.5
[1], 370 K	–	70.5
[1], 380 K	–	71.2
[1], 390 K	–	71.2
[1], 400 K	–	72.5
[1], 410 K	–	72.8
[1], 420 K	–	73.4
[1], 430 K	–	73.5
[1], 440 K	–	74.4
[1], 450 K	–	74.6
[1], 460 K	–	74.9
[1], 470 K	–	75.5
[1], 480 K	–	76.2
[1], 490 K	–	76.4
[1], 500 K	–	76.5
[1], 510 K	–	76.6
[1], 520 K	–	76.7
[1], 530 K	–	77.1
[1], 540 K	–	77
[1], 550 K	–	77.1
[1], 560 K	–	77.3
[1], 570 K	–	77.9
[1], 580 K	–	78.2
[1], 590 K	–	79
[1], 600 K	–	79.1
[1], 610 K	–	79.7
[1], 620 K	–	79.4
[1], 630 K	–	79.6
[1], 640 K	–	80.3
[1], 650 K	–	79.8
[1], 660 K	–	80.5
[1], 670 K	–	80.5
[1], 680 K	–	80.7
[1], 690 K	–	81.1
[1], 700 K	–	80.4
[1], 710 K	–	80.8
[1], 720 K	–	81.2
[1], 730 K	–	81.7
[1], 740 K	–	82.2
[1], 750 K	–	82.9
[1], 760 K	–	82.4
[1], 770 K	–	82.7
[1], 780 K	–	83.4
[1], 790 K	–	83.9
[1], 800 K	–	83.7
[1], 810 K	–	84.1
[1], 820 K	–	83.8
[1], 830 K	–	84.2
[1], 840 K	–	84.1
[1], 850 K	–	83.7
[1], 860 K	–	84.1
[1], 870 K	–	84.5
[2], From pellet mass and volume	10570	–
[2], X-ray diffraction	10970	–
[2], buoyancy	10660	–

[O-2].[O-2].[U+4] [uranium dioxide] + [O-2].[O-2].[Th+4]
Details	mass density [kg/m3]	molar heat capacity at constant pressure [J/K/mol]
[3], From pellet mass and volume	10570	–
[3], X-ray diffraction	10970	–
[3], buoyancy	10660	–
[4], 300 K	–	64.6
[4], 310 K	–	66.2
[4], 320 K	–	66.8
[4], 330 K	–	67.7
[4], 340 K	–	68.7
[4], 350 K	–	69.1
[4], 360 K	–	69.5
[4], 370 K	–	70.5
[4], 380 K	–	71.2
[4], 390 K	–	71.2
[4], 400 K	–	72.5
[4], 410 K	–	72.8
[4], 420 K	–	73.4
[4], 430 K	–	73.5
[4], 440 K	–	74.4
[4], 450 K	–	74.6
[4], 460 K	–	74.9
[4], 470 K	–	75.5
[4], 480 K	–	76.2
[4], 490 K	–	76.4
[4], 500 K	–	76.5
[4], 510 K	–	76.6
[4], 520 K	–	76.7
[4], 530 K	–	77.1
[4], 540 K	–	77
[4], 550 K	–	77.1
[4], 560 K	–	77.3
[4], 570 K	–	77.9
[4], 580 K	–	78.2
[4], 590 K	–	79
[4], 600 K	–	79.1
[4], 610 K	–	79.7
[4], 620 K	–	79.4
[4], 630 K	–	79.6
[4], 640 K	–	80.3
[4], 650 K	–	79.8
[4], 660 K	–	80.5
[4], 670 K	–	80.5
[4], 680 K	–	80.7
[4], 690 K	–	81.1
[4], 700 K	–	80.4
[4], 710 K	–	80.8
[4], 720 K	–	81.2
[4], 730 K	–	81.7
[4], 740 K	–	82.2
[4], 750 K	–	82.9
[4], 760 K	–	82.4
[4], 770 K	–	82.7
[4], 780 K	–	83.4
[4], 790 K	–	83.9
[4], 800 K	–	83.7
[4], 810 K	–	84.1
[4], 820 K	–	83.8
[4], 830 K	–	84.2
[4], 840 K	–	84.1
[4], 850 K	–	83.7
[4], 860 K	–	84.1
[4], 870 K	–	84.5

[O-2].[O-2].[Th+4] [thorium dioxide]
Details	mass density [kg/m3]	molar heat capacity at constant pressure [J/K/mol]
[1], 300 K	–	62.1
[1], 310 K	–	61.8
[1], 320 K	–	62.8
[1], 330 K	–	63.5
[1], 340 K	–	64.2
[1], 350 K	–	65.1
[1], 360 K	–	65.6
[1], 370 K	–	65.9
[1], 380 K	–	66.8
[1], 390 K	–	67.3
[1], 400 K	–	67.7
[1], 410 K	–	68
[1], 420 K	–	68.4
[1], 430 K	–	68.6
[1], 440 K	–	68.9
[1], 450 K	–	69.6
[1], 460 K	–	69.8
[1], 470 K	–	70.1
[1], 480 K	–	70.2
[1], 490 K	–	70.5
[1], 500 K	–	70.7
[1], 510 K	–	70.9
[1], 520 K	–	71.2
[1], 530 K	–	71.4
[1], 540 K	–	71.7
[1], 550 K	–	71.9
[1], 560 K	–	72
[1], 570 K	–	72.1
[1], 580 K	–	72.3
[1], 590 K	–	72.5
[1], 600 K	–	72.5
[1], 610 K	–	72.5
[1], 620 K	–	73
[1], 630 K	–	73
[1], 640 K	–	73.3
[1], 650 K	–	73.6
[1], 660 K	–	73.5
[1], 670 K	–	73.6
[1], 680 K	–	73.6
[1], 690 K	–	73.4
[1], 700 K	–	73.8
[1], 710 K	–	74.5
[1], 720 K	–	74.5
[1], 730 K	–	74.6
[1], 739 K	–	74.7
[1], 750 K	–	74.6
[1], 760 K	–	75
[1], 770 K	–	75.3
[1], 780 K	–	75.3
[1], 790 K	–	75.3
[1], 800 K	–	75.7
[1], 810 K	–	75.7
[1], 820 K	–	75.7
[1], 830 K	–	75.9
[1], 840 K	–	76
[1], 850 K	–	76.1
[1], 860 K	–	76.4
[1], 870 K	–	76.1
[2], From pellet mass and volume	9390	–
[2], X-ray diffraction	10000	–
[2], buoyancy	9430	–
